Test [1] deals with Arabidopsis thaliana root. In words: Root-shortening assay (root length). The class given is in vivo. The following applies: for root-shortening activity: 1 μM peptide, 14-day-old root length, Fig. 1b, n=13-20; for CLV3-type activity: root 1 µM (stele 10 µM), Supplementary Fig. 8. On the procedure:
(§1) For root-length measurement, plants were germinated and grown vertically on half-strength Murashige and Skoog (MS) medium supplemented with 1% sucrose and peptide/control solution at 22 °C under continuous light. To observe the RAM, 4-day-old roots were excised and mounted in clearing solution (chloral hydrate/glycerol/water=8:1:2) before imaging with light microscope (Axio Imager.A2, Zeiss).

Test [2] has as its system root apical meristem (RAM). In words: Root apical meristem (RAM) morphology. The class given is in vivo, Arabidopsis thaliana. The following applies: 1 μM peptide, 4-day-old, wild type, Fig. 1c. The procedure:
as §1

For test [3], the system named is shoot apical meristem (SAM). In words: Shoot apical meristem (SAM) morphology in sections. The class given is in vivo, Arabidopsis thaliana. The following applies: 10 μM peptide, 10-day treatment. The procedure:
To observe the SAM, plants were germinated and grown at 22 °C under continuous light on half-strength MS medium supplemented with 1% sucrose and 10 μM peptide/control solution. To make sections, roots and leaves were cut off from 10-day-old seedlings, then fixed in FAA solution (50% ethanol:10% formalin:5% acetic acid in water) and embedded into Technovit 7,100 resin according to the manufacturer's instructions (Heraeus Kulzer). Four-micrometre-thin sections were made using a microtome (RM2235, Leica), stained with 0.05% toluidine blue and mounted in Entellan New (Merck) before observation with a light microscope (Axio Imager.A2, Zeiss).

For the next test, the system named is hypocotyl stele. In words: Stele-thickening assay (hypocotyl stele width). The class given is in vivo, Arabidopsis thaliana. The following applies: for effect on stele radial growth / stele width: 10 μM peptide, liquid medium, 10-day-old hypocotyl, Fig. 1e,f. On the procedure:
(§2) For the observation of stele and leaf vein, seeds were germinated and cultured with shaking at 110 r.p.m. at 22 °C under continuous light in liquid half-strength MS medium supplemented with 1% sucrose and peptide/control solution. 10-day-old seedlings were fixed in a 1:3 mixture of acetic acid/ethanol, washed with water and mounted in clearing solution (chloral hydrate/glycerol/water=8:1:2) before imaging with a light microscope (Axio Imager.A2, Zeiss).

A further test concerns leaf vein xylem strands. In words: Leaf vein xylem strand observation. In kind it is in vivo, Arabidopsis thaliana. The following applies: 10 μM peptide, 10-day-old clv2-101, Fig. 2c. The procedure: as §2
In test [4] the target is T1, CLV1 ectodomain (CLV1-HT) (Arabidopsis thaliana, UniProt Q9SYQ8).
T1 construct: applied it to the membrane fractions containing receptor ectodomains expressed in tobacco cells; made in house; host or cells: tobacco BY-2 cells (microsomal fraction)
T1 sequence (Q9SYQ8 25-638 limits assumed): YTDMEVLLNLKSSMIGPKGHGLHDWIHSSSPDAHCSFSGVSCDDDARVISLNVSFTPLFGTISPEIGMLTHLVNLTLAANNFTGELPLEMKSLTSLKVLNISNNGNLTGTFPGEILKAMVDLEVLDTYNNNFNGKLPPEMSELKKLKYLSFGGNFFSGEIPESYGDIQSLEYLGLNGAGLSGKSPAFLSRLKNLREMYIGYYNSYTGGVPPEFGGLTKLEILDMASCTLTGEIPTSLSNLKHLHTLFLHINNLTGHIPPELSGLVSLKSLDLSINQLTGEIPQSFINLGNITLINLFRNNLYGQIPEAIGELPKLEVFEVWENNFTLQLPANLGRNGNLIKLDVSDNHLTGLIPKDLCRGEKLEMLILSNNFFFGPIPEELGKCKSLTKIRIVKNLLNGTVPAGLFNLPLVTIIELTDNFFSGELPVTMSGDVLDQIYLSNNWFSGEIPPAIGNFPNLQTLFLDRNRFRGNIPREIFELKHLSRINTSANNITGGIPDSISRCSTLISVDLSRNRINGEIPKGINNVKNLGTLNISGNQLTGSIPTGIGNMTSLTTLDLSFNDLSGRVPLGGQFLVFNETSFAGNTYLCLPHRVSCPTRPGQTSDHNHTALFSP
In words: Photo-affinity labelling with [125I]ASA-KIN, CLV1. The class given is binding. The procedure:
(§3) Aliquots (1,000 μg) of microsomal proteins for Halo-tagged receptors (CLV1-HT[10], TDR-HT[7] and CLV2-HT[20]) from tobacco BY-2 cells were suspended in 250 μl binding buffer (50 mM MES-KOH pH 5.5 with 100 mM sucrose) containing 30 nM [^125I]ASA-KIN in the presence or absence of various concentrations of competitor peptides indicated in corresponding figure legends and then incubated for 10 min on ice. The bound and free [^125I]ASA-KIN were separated by layering the reaction mixture onto 900 μl of wash buffer (50 mM MES-KOH pH 5.5 with 500 mM sucrose) and centrifuging for 5 min at 100,000 g at 4 °C. After discarding the supernatant, the pellet was irradiated on ice for 20 min with an ultraviolet lamp (model ENF-260C/J (365 nm), Spectronics Co. Ltd) at a distance of 1 cm. The cross-linked membrane proteins were solubilized, immunoprecipitated by using HaloTag antibody and separated by SDS–PAGE on a 7.5% acrylamide gel. The dried gels were exposed to the bio-imaging plate (MS 2,025, Fujifilm) for 2 days at room temperature and the plates were analysed using a bio-imaging analyser (Typhoon FLA 900, GE).

Test [5] concerns Arabidopsis thaliana root. The following applies: cited from earlier work. The source says: CLV3-like activities have also been reported in other 18 CLE peptides. […] We analysed the structure–activity relationship between CLV3 (Fig. 1a, peptide 1) and CLE25 (Fig. 1a, peptide 2) by swapping the residues at 2nd, 5th, 10th and 12th positions (Fig. 1a, peptide 3–16). […] Although all the chimera peptides shortened the root, only the peptide 15, hereafter call ...

The next test has as its target T2, TDR ectodomain (TDR-HT) (Arabidopsis thaliana, UniProt Q9FII5).
T2 construct: applied it to the membrane fractions containing receptor ectodomains expressed in tobacco cells; made in house; host or cells: tobacco BY-2 cells (microsomal fraction)
T2 sequence (Q9FII5 30-652 limits assumed): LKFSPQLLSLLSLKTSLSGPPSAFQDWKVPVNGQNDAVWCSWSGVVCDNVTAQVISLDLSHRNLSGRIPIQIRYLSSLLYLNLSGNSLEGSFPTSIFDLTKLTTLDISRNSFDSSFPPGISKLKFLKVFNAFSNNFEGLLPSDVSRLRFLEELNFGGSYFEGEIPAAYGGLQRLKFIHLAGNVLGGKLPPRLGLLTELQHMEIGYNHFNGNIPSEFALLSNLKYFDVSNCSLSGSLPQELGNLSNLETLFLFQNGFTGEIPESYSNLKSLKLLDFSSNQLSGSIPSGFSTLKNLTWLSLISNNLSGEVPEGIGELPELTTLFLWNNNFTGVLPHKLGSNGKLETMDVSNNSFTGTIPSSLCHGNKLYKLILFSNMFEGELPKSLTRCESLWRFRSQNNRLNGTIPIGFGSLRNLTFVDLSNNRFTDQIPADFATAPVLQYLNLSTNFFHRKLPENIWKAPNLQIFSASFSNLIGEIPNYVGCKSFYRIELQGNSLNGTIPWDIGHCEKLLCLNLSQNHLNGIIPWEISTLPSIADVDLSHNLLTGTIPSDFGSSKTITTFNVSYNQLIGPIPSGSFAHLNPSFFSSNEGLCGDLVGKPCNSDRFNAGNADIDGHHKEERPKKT
In words: Photo-affinity labelling with [125I]ASA-KIN, TDR. In kind it is binding. The procedure:
as §3

In test [6] the target is T3, CLV2 ectodomain (CLV2-HT) (Arabidopsis thaliana, UniProt O80809).
T3 construct: made in house; host or cells: tobacco BY-2 cells (microsomal fraction)
T3 sequence (O80809 26-686 limits assumed): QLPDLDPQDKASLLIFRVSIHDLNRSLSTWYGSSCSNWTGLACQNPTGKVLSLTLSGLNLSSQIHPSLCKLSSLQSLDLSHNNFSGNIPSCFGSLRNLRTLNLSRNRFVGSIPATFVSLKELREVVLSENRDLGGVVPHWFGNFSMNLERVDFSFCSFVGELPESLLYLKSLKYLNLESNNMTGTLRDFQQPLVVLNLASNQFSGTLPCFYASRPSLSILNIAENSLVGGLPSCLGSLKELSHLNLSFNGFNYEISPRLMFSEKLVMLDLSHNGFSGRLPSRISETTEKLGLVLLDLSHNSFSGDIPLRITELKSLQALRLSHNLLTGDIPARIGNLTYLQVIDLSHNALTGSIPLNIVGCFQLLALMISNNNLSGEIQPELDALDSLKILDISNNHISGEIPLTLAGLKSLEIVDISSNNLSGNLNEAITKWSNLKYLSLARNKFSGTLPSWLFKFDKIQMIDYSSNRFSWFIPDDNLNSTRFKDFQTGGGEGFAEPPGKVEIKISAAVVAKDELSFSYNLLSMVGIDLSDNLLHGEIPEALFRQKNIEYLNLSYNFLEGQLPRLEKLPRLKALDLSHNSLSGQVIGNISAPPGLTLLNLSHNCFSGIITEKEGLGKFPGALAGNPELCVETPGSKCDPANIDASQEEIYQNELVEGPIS
In words: Photo-affinity labelling with [125I]ASA-KIN, CLV2. The following applies: 30 nM [125I]ASA-KIN probe, same condition, Supplementary Fig. 6. The class given is binding. On the procedure:
as §3

[7] abbreviates: wild type, Supplementary Fig. 1.
[8] abbreviates: 30 nM probe, MES-KOH pH 5.5, 10 min on ice, tobacco BY-2 microsomes, Fig. 3c.
Where [9] appears, read: various concentrations of KIN, Supplementary Fig. 7.

This is an account of results in PMC5303819, “Cryptic bioactivity capacitated by synthetic hybrid plant peptides” (Nature Communications, 2017).

“CLV3: endogenously encoded 12 amino-acid CLE peptide, chemically synthesized without hydroxyprolines”: the root-shortening activity result in test [1] (wild type) was “showed root-shortening activities”. Besides, in test [1] (clv2-101 mutant, Supplementary Fig. 3a,b), the “response of clv2-101 mutant, root length and RAM size” value is listed as “resistant”. Also, the “dose-response of root growth attenuation” value in test [1] (wild type, 1 nM-1 µM, Supplementary Fig. 1) is “attenuates the root growth in a lower concentration than CLE25 and KIN”. Besides, the “concentration at which bioactivity starts in root shortening assay” value in test [1] (setting [7]) is ~ 10 nM. In addition, the “size of the root apical meristem (RAM)” value in [2] is recorded as “reduced”. Besides, the “SAM of clv1-101 and clv2-101 mutants after treatment” value in [3] (loss-of-function mutants, Fig. 2a) was “maintained”. Moreover, in [3] (wild type, Fig. 1d), the “effect on SAM” value is “disappeared”. Further, in the test with hypocotyl stele (100 nM peptide, clv2-101 mutant, Fig. 2b), the “response of clv2-101 mutant to inhibitory activity on stele width” value is recorded as “insensitive”. For the same substance, in the test on hypocotyl stele (100 nM peptide, wild type, 10-day-old, Fig. 1g, 2b), the “effect on stele width at 100 nM” value is recorded as “reduced the stele width”. For the same substance, the “effect on stele radial growth / stele width” value in the test on hypocotyl stele (wild type, 2b) is listed as “reduced radial growth of the stele”. In addition, the “lowest concentration with negative effect on stele growth” value in the test with hypocotyl stele (wild type, 10-day-old, dose-response Fig. 1g) is 30 nM. Moreover, the “effect on xylem differentiation in leaf vein” value in the test on leaf vein xylem strands is recorded as “not observed”. Moreover, in test [4] (1,000-fold excess non-radio-labelled peptide, Fig. 3c), the “competition of [125I]ASA-KIN labelling of CLV1” value is listed as “competitively inhibited”.

Regarding “CLE25: endogenously encoded CLE peptide sequence, CLV3-type, synthesized without hydroxyprolines (RKVPNGPDPIHN; CLE25p no hydroxyprolines; UniProt Q8LFL4 58-69, looked up)”, in [1] (wild type), the root-shortening activity result is reported as “showed root-shortening activities”. For the same substance, the “concentration at which bioactivity starts in root shortening assay” value in test [1] (setting [7]) is recorded as ~ 100 nM. Besides, in [2], the “size of the root apical meristem (RAM)” value is recorded as “reduced”. Further, the “effect on stele radial growth / stele width” value with hypocotyl stele (wild type, 2b) is listed as “reduce the thickening of vascular tissues in the hypocotyl”. Moreover, the “effectiveness in the root-shortening assay” value in test [5] was “more effective than CLV3”.

In the case of “CLV3-S^11th: CLV3 with H-to-S substitution at the 11th position (RTVPSGPDPLSHH; MCLV3; UniProt Q9XF04 70-82, looked up, variant H11S)”, the CLV3-type activity result in [1] is recorded as “neither CLV3 nor CLE41 activity”; in test [1] (listed as peptide 24), “even weaker than KIN-1δ”. Besides, in the test on hypocotyl stele (stele 10 µM, Supplementary Fig. 8), the CLE41-type activity entry is on record as “neither CLV3 nor CLE41 activity”. Further, the “interaction with CLV1 in competitive displacement assay with [125I]ASA-KIN” value in test [4] (Supplementary Fig. 10) was “retained the interaction with CLV1”.

For [(4-azidosalicyl)Lys^2]KIN [ASA-KIN], in test [1] (10 nM-1 µM, Supplementary Fig. 5b), the “bioactivity compared with KIN, root shortening” value is listed as “reduced compared with the original KIN”. Also, the “bioactivity compared with KIN, hypocotyl stele thickening” value in the test with hypocotyl stele (Supplementary Fig. 5c) is “reduced compared with the original KIN”.

Take “[^125I]-radiolabelled [(4-azidosalicyl)Lys^2]KIN [[^125I]ASA-KIN]”: in test [4] (setting [8]), the “photo-affinity labelling of CLV1 ectodomain” value is “covalently labelled”. For the same substance, in test [4] (setting [9]), the “competitive displacement of probe binding to CLV1 by KIN” value is “binds to these receptors in a similar manner”. Further, the “photo-affinity labelling of TDR ectodomain” value on TDR ectodomain (TDR-HT) (setting [8]) was “covalently labelled”. Moreover, on TDR ectodomain (TDR-HT) (setting [9]), the “competitive displacement of probe binding to TDR by KIN” value was “binds to these receptors in a similar manner”. The “interaction with CLV2 ectodomain” value in test [6] is on record as “no interaction was detected”.
